From patent publication US11066421B1, “Synthetic cinchona alkaloids against cancer” (Ares Pharmaceuticals, LLC, priority 2021, dated 2021)
“Also recorded” adds a separate entry of the source.

Tests used:
[1] = tested on: primary leukemia/lymphoma cells; test: Annexin V flow cytometric apoptosis assay in primary cells from patients; assay type: cell-based, human
Description: Apoptotic death was monitored using multiparameter flow cytometry, as previously reported (F. M. Uckun, et al., 2011, British Journal of Haematology, 153:741-752; F. M. Uckun et al., 2015, J Clin Invest., 125:1006-18). Controls included vehicle (PBS) treated cells (CON). Cells were analyzed for apoptosis using the standard quantitative flow cytometric apoptosis assay using the Annexin V-FITC Apoptosis Detection Kit from Sigma. The labeled cells were analyzed on a flow cytometer. The percent apoptosis was calculated using the formula: 100-100×(Percentage of non-apoptotic cells in test sample/Percentage of non-apoptotic cells in untreated control sample). The percentages for Annexin V FITC^−PI^− viable cells and Annexin V-FITC^+PI^+ advanced apoptotic cells for each sample are indicated in the respective quadrants of the depicted two-color fluorescence dot plots.
We examined the ability AP-5 to cause apoptotic death in freshly obtained primary cancer cells from Ficoll-Hypaque separated, highly enriched populations of primary leukemia/lymphoma cells isolated from bone marrow (BM, N=13) or peripheral blood (PB, N=13) specimens of 26 patients with hematological malignancies, 3 patients with rare forms of leukemia (one each with prolymphocytic leukemia [PLL], plasma cell leukemia [PCL], large granular cell leukemia [LGL]), one patient with chronic myeloid leukemia in blast crisis (CML-BC), including 8 patients with chronic lymphocytic leukemia (CLL)/well differentiated lymphocytic lymphoma (WDLL), one patient with acute myeloid leukemia (AML), 11 patients with B-lineage acute lymphoblastic leukemia (ALL) and 2 patients with T-lineage ALL (FIG. 1). Cells were treated with standard chemotherapeutic agents at various concentrations provided in RPMI-1640 medium supplemented with 10% fetal bovine serum (FBS) and incubated at 37° C. for 24 hr. Dexamethasone (DEQ.) was used. at 50 μg/ml, Adriamycin (ADR) at 10 μg/ml, vincristine (VCR), gemcitabine (GEM), fludarabine (FLU), methotrexate (MTX), etoposide (ETO), cytarabine (ARA-C) and cladribine (2-CDA) at 25 μg/ml. The cells were washed with serum-free RPMI-1640 medium and then processed for apoptosis assays. […]
Apoptotic death was monitored using multiparameter flow cytometry, as previously reported (F. M. Uckun et at, 2006, Brit Journal of Hematol. 135:500-8; F. M. Uckun et al., 2011, Brit Journal of hematol. 153:741-52; F. M. Uckun et al., 2015, J. Clin. Invest. 125:1006-18). Exposure of phosphatidylserine to the outer leaflet of the leukemic cell membrane was measured using fluorescein isothiocyanate (FITC)-conjugated annexin V, the natural ligand of phosphatidylserine (R&D Systems, Minneapolis, Minn., USA). […] The labelled cells were analyzed using a FACS Vantage flow cytometer (Becton Dickinson, Mountain view, CA, USA). […]

PC-3 = test: Confocal laser scanning microscopy apoptosis, PC-3; assay type: cell-based, human; conditions: 100 nM, 48 hours
Description: Confocal Laser Scanning Microscopy. Cells were treated with cinchona alkaloids or PBS in culture medium for 48 hours. After 48 hr of culture, cells were co-stained with a rabbit polyclonal antitubulin antibody (Green Fluorescence) and the DNA-specific dye Toto-3 (Blue Fluorescence) and examined by laser scanning confocal microscopy using a Bio-Rad MRC-1024 Laser Scanning Confocal Microscope equipped with a Kr/Ar laser (Bio-Rad, Hercules, Calif., USA) mounted on a Nikon Eclipse E800 upright microscope with high numerical aperture objectives (Nikon, Melville, N.Y., USA), as described (F. M. Uckun, et al., 2010, Proc. Natl. Acad. Sci. USA, 107: 2902-7; F. M. Uckun., et al., 2010, British Journal of Haematology, 149: 508-17; F. M. Uckun, et al., 2013, Blood. 121:4348-54; F. M. Uckun et al., 2010, Proc. Natl Acad. Sci. USA 107:16852-57; F. M. Uckun et al., 2012, Proc. Natl Acad. Sci. USA 109:18072-77). Cell lines. BT-20 (ATCC HTB-19), a triple negative breast cancer cell line, PC-3 (ATCC CRL-1435) a CRPC cell line (small cell endocrine carcinoma) derived from a Stage IV prostate cancer patient with bone metastases were obtained from American Type Culture Collection (ATCC) (Manassas, Va.). […] Cells were washed in PBS and counterstained with the DNA-specific dye TOTO-3 (blue fluorescence) (Molecular Probes Inc., Eugene, Oreg.) for 10 min at a dilution of 1:1000. […]

[2] = 24 hr in vitro exposure, primary cells from 26 patients

## 2,4,6-Tri (9-O-dihydrocinchoninyl)pyrimidine [AP-5]
[1]; [2]
  % apoptosis (Mean±SE): 93.5±1.1%
  median percentage of apoptosis: 96.1%
[1]; 24 hr in vitro exposure, primary cells from 26 patients, range
  % apoptosis (range): 79.9-99.6%
[1]; 24 hr, % apoptosis compared
  potency versus standard chemotherapy drugs tested side by side: substantially more potent than any of the 9 standard chemotherapy drugs tested side by side
PC-3
  signs of apoptosis by confocal imaging: virtually all of the BT-20 or PC-3 cells treated with AP-5 showed signs of advanced apoptosis; also recorded: virtually all of the PC-3 cells treated with AP-5 showed signs of advanced apoptosis
